The test concerns the target PI3Kβ (Homo sapiens (Human), UniProt P42338). The test can be described thus: In vitro enzyme inhibition assay (Kinase Glo based enzyme activity assay). The class given is biochemical. The note with it: Test (a), Table A. The protocol: (a) In Vitro Enzyme Inhibition Assay
The inhibition of PI3Kβ, PI3Kα, PI3Kγ and PI3Kδ was evaluated in a Kinase Glo based enzyme activity assay using human recombinant enzymes. The assay measures depletion of ATP after incubation with enzyme, PIP2 and ATP plus compound. ATP at the end of the reaction is detected by addition of Kinase Glo reagent, in this the Ultra Glo™ luciferase (Promega) uses the ATP as a substrate to catalyze the mono-oxygenation of luciferin and the generation of light. A direct relationship exists between the luminescence measured with the Kinase-Glo Plus Reagent and the amount of ATP remaining in a completed kinase reaction and luminescence is inversely related to kinase activity.
Compounds in 100% DMSO were added to assay plates by acoustic dispensing. PI3Kβ was added in a Tris buffer (50 mM Tris pH7.4, 0.05% CHAPS, 2.1 mM DTT, and 10 mM MgCl2) and allowed to preincubate with compound for 20 minutes prior to addition of substrate solution containing PIP2 and ATP. The enzyme reaction was stopped after 80 minutes by the addition of Kinase Glo detection solution. Plates were left for 30 minutes at room temperature then read on a Pherastar Instrument (Luminescence ATP 384 program) setting gain on max well. […]
IC50 values were calculated using a log curve fitting to a non-linear regression package, fitting raw data to inhibitor concentration.

This note sets out measurements from patent publication US9718800B2, “Chromenone derivatives” (AstraZeneca AB, priority 2009, dated 2017).

What is called pIC50 is the IC50 on a negative log10 scale, so that one unit is a factor of ten. A low value points to a large IC50.

pIC50: −log10 of the molar value.

Sequence of PI3Kβ (P42338 whole entry): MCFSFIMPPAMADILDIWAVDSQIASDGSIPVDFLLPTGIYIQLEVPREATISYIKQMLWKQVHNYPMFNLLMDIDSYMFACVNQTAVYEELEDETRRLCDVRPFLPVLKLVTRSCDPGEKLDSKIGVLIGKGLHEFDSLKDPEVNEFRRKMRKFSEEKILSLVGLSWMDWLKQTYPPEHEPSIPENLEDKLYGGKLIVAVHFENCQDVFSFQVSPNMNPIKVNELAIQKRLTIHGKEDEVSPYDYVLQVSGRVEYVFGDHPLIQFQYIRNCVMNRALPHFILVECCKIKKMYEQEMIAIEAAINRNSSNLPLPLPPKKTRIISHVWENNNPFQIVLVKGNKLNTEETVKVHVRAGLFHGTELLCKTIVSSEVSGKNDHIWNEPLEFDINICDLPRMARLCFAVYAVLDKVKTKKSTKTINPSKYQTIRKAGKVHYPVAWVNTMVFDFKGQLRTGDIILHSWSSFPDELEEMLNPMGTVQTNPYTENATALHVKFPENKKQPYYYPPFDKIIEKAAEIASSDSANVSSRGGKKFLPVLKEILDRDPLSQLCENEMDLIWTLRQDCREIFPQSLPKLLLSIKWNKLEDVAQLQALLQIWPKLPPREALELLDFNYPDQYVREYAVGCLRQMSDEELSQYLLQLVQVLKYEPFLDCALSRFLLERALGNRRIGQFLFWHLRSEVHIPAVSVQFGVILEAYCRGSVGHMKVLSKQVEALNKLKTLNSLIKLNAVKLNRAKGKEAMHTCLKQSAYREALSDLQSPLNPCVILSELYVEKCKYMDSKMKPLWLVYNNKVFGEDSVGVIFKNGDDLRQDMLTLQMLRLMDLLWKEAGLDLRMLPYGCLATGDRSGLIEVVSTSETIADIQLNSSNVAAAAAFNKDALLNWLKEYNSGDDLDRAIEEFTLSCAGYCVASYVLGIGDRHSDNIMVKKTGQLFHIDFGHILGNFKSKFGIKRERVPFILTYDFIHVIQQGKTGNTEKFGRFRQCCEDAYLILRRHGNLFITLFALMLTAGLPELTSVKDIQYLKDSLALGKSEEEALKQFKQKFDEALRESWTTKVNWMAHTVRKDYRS
Sequence of PI3Kβ (P27986 whole entry partner): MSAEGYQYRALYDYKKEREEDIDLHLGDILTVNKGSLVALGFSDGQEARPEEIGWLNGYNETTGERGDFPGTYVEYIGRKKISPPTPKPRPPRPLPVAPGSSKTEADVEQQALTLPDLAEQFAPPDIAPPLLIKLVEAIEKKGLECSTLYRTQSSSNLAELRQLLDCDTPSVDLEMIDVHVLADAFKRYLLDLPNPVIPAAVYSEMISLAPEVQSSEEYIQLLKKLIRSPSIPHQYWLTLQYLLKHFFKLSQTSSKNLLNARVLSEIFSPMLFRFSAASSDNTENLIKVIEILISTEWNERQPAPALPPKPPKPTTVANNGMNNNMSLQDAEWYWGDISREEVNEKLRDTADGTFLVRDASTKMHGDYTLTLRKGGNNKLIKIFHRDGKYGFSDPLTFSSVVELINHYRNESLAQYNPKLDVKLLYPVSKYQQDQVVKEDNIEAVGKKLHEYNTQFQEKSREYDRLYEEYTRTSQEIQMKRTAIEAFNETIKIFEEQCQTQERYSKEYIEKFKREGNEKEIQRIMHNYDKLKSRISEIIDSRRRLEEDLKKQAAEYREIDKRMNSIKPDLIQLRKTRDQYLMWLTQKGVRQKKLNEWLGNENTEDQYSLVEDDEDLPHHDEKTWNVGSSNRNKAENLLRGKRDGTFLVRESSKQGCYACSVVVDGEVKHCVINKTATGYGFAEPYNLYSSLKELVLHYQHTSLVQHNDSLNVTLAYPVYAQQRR

Compound `CC(c1cc(C(=O)NCCN(C)C)cc2c(=O)cc(N3CCOCC3)oc12)N(C)c1ccc(F)c(F)c1` (stereo not shown) [Example 3.01, 8-(1-((3,4-difluorophenyl)(methyl)amino)ethyl)-N-(2-(dimethylamino)ethyl)-2-morpholino-4-oxo-4H-chromene-6-carboxamide] showed a pIC50 of 8.22.
